Laboratory results taken from US20210355107A1, “MULTI-SUBSTITUTED PYRIDONE DERIVATIVES AND MEDICAL USE THEREOF” (Beijing Yuezhikangtai Biomedicines Co., Ltd., priority 2018, published 2021).

Experiments:
tyrosine kinase Tyro3 = target: T1, tyrosine kinase Tyro3 (Homo sapiens, UniProt Q06418); assay: HTRF assay, inhibitory activity against tyrosine kinase Tyro3; type: biochemical; conditions: ATP at Km (50 μM), two duplicate wells
T1 construct: purchased Carna 08-109
T1 sequence (Q06418 453-890 limits assumed): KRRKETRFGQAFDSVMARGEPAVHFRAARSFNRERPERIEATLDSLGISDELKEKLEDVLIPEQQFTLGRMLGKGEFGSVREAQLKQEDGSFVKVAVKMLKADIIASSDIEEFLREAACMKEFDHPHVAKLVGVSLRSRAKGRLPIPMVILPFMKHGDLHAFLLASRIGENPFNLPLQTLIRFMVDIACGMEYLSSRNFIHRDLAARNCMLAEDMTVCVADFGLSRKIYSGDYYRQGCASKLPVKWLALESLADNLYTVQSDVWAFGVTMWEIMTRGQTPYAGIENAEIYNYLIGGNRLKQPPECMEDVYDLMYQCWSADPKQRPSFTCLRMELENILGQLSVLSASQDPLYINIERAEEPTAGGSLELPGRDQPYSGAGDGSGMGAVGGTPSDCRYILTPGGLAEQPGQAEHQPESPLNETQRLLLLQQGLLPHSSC
Protocol: (§1) Test Example 2: Evaluation of Inhibitory Activity (IC50) of Compounds disclosed herein against Tyrosine Kinases Mer and Tyro3
(§2) In this test, HTRF method was used to test the inhibitory activity of compounds when ATP concentrations correspond to the Km of the kinases. The control substance was RXDX-106. The concentration of test compound was 3-fold diluted from an initial concentration of 10 μM, and two duplicate wells were set.
(§3) Kinase Mer (Carna, Cat. No. 08-108, Lot. No. 14CBS-0421H); Tyro3 (Carna, Cat. No. 08-109, Lot. No. 08CBS-1186H); HTRF kinase-TK kit (Cisbio, Cat. No. 62TK0PEC), the kit comprising: biotin-TK substrate lyophilized powder (Cisbio, Cat. No. 61TK0BLC, Lot. No. 07A), streptavidin-XL665 (Cisbio, Cat. No. 610SAXLG, Lot. No. 126A), TK antibody-cryptate (Cisbio, Cat. No. 610SAXLG, Lot. No. 04A), and detection buffer (including EDTA) (Cisbio, Cat. No. 62TK0PEC, Lot. No. 12A); ATP (Sigma, Cat. No. A7699-5G, CAS No. 34369-07-8, Lot. No. SLBQ6014V); DMSO (Sigma, Cat. No. D5879-1L, Lot. No. SHBH9944); HEPES (Sigma, Cat. No. V900477-500G, CAS No. 7365-45-9, Lot. No. WXBC4716V); MgCl2 (Sigma, Cat. No. 208337-1KG, Lot. No. MKBX9508V); EGTA (Sigma, Cat. No. E3889-100g, CAS 67-42-5, […], Lot. No. SLBG8546V); NP-40 (Beijing Dingguo, Cat. No. DH218, Lot. No. 36R00160); DTT (Sigma, Cat. No. D0632-25g, CAS No. 3483-12-3, Lot. No. SLBF3964V); compound plate (Labcyte, Cat. No. LP0200, Lot. No. 0006386836); assay plate (Greiner, Cat. No. 784075, Lot. No. E16123HM); control substance RXDX-106 (prepared according to the method disclosed in patent WO2013074633).
(§4) 1) Preparation of a buffer: 50 mM HEPES, 10 mM MgCl2, 1 mM EGTA, 0.01% NP-40, 2 mM DTT.
(§5) 2) Preparation of control substance and test samples: RXDX-106 and the compounds disclosed herein were each dissolved in DMSO to 10 mM and then diluted to 1 mM or an appropriate concentration with DMSO, and then serial double dilution was performed using BRAVO (Agilent). 100 nL of each was transferred from a compound plate (Labcyte-LP0200) to an assay plate (Greiner-784075) using ECHO 555 (Labcyte). The final concentration of DMSO was 1%.
(§6) 3) Mer and Tyro3 were each diluted to 0.5 nM and 1.2 nM with the detection buffer (Cisbio, Cat. No. 62TK0PEC, Lot. No. 12A). 5 μL of each was added to a 384-well plate and incubated with the compounds disclosed herein for 30 min at 22-25° C. Final concentrations of Mer and Tyro3 were 0.25 nM and 0.6 nM, respectively.
(§7) 4) Biotin-TK substrate and ATP were each diluted to a concentration twice the final concentration with 1× kinase buffer made up of HEPES, NaN3, BSA and orthovanadate. 5 μL of the mixture of substrate and ATP was added to the 384-well plate to initiate the reaction, which lasts for 1 h at 22-25° C.
(§8) 5) Streptavidin-XL665 and TK antibody-cryptate were diluted to 250 nM and 0.5 nM, respectively, with the detection buffer. […] of each of the two solutions was added to the 384-well plate to initiate the reaction, which lasts for 1 h at 22-25° C. The final concentrations of streptavidin-XL665 and TK antibody-cryptate were 125 nM and 0.25 nM, respectively.
(§9) 6) The fluorescence intensities at 665 nm and 615 nm were read with an Envision Reader (PerkinElmer) .
(§10) 7) IC50 values of the compounds were fitted with XL-fit software.

tyrosine kinase Mer = target: T2, tyrosine kinase Mer (Homo sapiens, UniProt Q12866); assay: HTRF assay, inhibitory activity against tyrosine kinase Mer; type: biochemical; conditions: ATP at Km (30 μM), two duplicate wells
T2 construct: purchased Carna 08-108
T2 sequence (Q12866 528-999 limits assumed): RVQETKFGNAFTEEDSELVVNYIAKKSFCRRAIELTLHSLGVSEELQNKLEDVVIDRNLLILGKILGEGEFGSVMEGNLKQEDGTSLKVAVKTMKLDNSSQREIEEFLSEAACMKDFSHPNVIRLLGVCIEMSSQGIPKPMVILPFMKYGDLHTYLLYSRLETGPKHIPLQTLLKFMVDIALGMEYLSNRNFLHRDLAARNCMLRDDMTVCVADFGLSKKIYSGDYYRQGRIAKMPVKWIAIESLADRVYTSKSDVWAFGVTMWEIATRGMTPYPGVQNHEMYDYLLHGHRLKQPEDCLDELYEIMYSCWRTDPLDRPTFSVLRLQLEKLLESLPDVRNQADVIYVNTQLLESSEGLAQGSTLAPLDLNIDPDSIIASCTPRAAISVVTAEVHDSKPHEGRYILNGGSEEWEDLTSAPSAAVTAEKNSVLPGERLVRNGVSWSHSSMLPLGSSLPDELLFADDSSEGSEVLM
Protocol: as §1, §2, §3, §4, §5, §6, §7, §8, §9, §10

| SMILES | IC50 (tyrosine kinase Tyro3) | IC50 (tyrosine kinase Mer) |
| --- | --- | --- |
| CCn1cc(-c2cnc(N)c(-c3ccc(NC(=O)c4cn(C5CC5)c(C#N)c(-c5ccc(F)cc5)c4=O)cc3F)c2)cn1 [Example 10, N-(4-(2-amino-5-(1-ethyl-1H-pyrazol-4-yl)pyridin-3-yl)-3-fluorophenyl)-6-cyano-5-(4-fluorophenyl)-1-cyclopropyl-4-oxo-1,4-dihydropyridine-3-carboxamide] | 30.2 nM | 2.17 nM |
| CC(C)n1cc(C(=O)Nc2ccc(-c3cc(-c4cnn(C5CCNCC5)c4)cnc3N)c(F)c2)c(=O)c(-c2ccc(F)cc2)c1C#N [Example 2, N-(4-(2-amino-5-(1-(piperidin-4-yl)-1H-pyrazol-4-yl)pyridin-3-yl)-3-fluorophenyl)-6-cyano-5-(4-fluorophenyl)-1-isopropyl-4-oxo-1,4-dihydropyridine-3-carboxamide] | 1.18 nM | 0.62 nM |
| CC(C)n1cc(C(=O)Nc2ccc(-c3cc(-c4cnn(C5CCN(C)CC5)c4)cnc3N)c(F)c2)c(=O)c(-c2ccc(F)cc2)c1C#N [Example 7, N-(4-(2-amino-5-(1-(1-methylpiperidin-4-yl)-1H-pyrazol-4-yl)-pyridin-3-yl)-3-fluorophenyl)-6-cyano-5-(4-fluorophenyl)-1-isopropyl-4-oxo-1,4-dihydro-pyridine-3-carboxamide] | 1.77 nM | 0.63 nM |
| CC(C)n1cc(C(=O)Nc2ccc(-c3cc(-c4cnn(C)c4)cnc3N)c(F)c2)c(=O)c(-c2ccc(F)cc2)c1C#N [Example 4, N-(4-(2-amino-5-(1-methyl-1H-pyrazol-4-yl)pyridin-3-yl)-3-fluorophenyl)-6-cyano-5-(4-fluorophenyl)-1-isopropyl-4-oxo-1,4-dihydropyridine-3-carboxamide] | 2.67 nM | 0.78 nM |
| CC(C)n1cc(C(=O)Nc2cc(F)c(-c3cc(-c4cnn(C)c4)cnc3N)cc2F)c(=O)c(-c2ccc(F)cc2)c1C#N [Example 6, N-(4-(2-amino-5-(1-methyl-1H-pyrazol-4-yl)pyridin-3-yl)-2,5-difluorophenyl)-6-cyano-5-(4-fluorophenyl)-1-isopropyl-4-oxo-1,4-dihydropyridine-3-carboxamide] | 1.8 nM | 1.17 nM |
| CCn1cc(-c2cnc(N)c(-c3ccc(NC(=O)c4cn(C(C)C)c(C#N)c(-c5ccc(F)cc5)c4=O)cc3F)c2)cn1 [Example 3, N-(4-(2-amino-5-(1-ethyl-1H-pyrazol-4-yl)pyridin-3-yl)-3-fluoro-phenyl)-6-cyano-5-(4-fluorophenyl)-1-isopropyl-4-oxo-1,4-dihydropyridine-3-carboxamide] | 2.27 nM | 1.11 nM |

Now from value to compound:

| IC50 (tyrosine kinase Tyro3) | IC50 (tyrosine kinase Mer) | SMILES |
| --- | --- | --- |
| 15.5 nM | 11.4 nM | COc1cc2nccc(Oc3ccc(NC(=O)c4cn(C(C)C)c(C#N)c(-c5ccc(F)cc5)c4=O)cc3F)c2cc1OC [Example 24, 6-cyano-N-(4-((6,7-dimethoxyquinolin-4-yl)oxy)-3-fluoro-phenyl)-5-(4-fluorophenyl)-1-isopropyl-4-oxo-1,4-dihydropyridine-3-carboxamide] |
| 0.5 nM | 0.92 nM | CCn1cc(-c2cnc(N)c(-c3cc(F)c(NC(=O)c4cn(C(C)C)c(C#N)c(-c5ccc(F)cc5)c4=O)cc3F)c2)cn1 [Example 33, N-(4-(2-amino-5-(1-ethyl-1H-pyrazol-4-yl)pyridin-3-yl)-2,5-difluorophenyl)-6-cyano-5-(4-fluorophenyl)-1-isopropyl-4-oxo-1,4-dihydropyridine-3-carboxamide] |
| 1.16 nM | 1.16 nM | [2H]C([2H])([2H])n1cc(-c2cnc(N)c(-c3cc(F)c(NC(=O)c4cn(C(C)C)c(C#N)c(-c5ccc(F)cc5)c4=O)cc3F)c2)cn1 [Example 34, N-(4-(2-amino-5-(1-methyl-d3-1H-pyrazol-4-yl)pyridin-3-yl)-2,5-difluorophenyl)-6-cyano-5-(4-fluorophenyl)-1-isopropyl-4-oxo-1,4-dihydropyridine-3-carboxamide] |
